According to patent US20230338391A1, “TREATMENT FOR DEPRESSION” (TAKEDA PHARMACEUTICAL COMPANY LIMITED, priority 2020, published 2023):
Where two headings read alike, the source gives them in different places.

Columns and labels:
[1] = Phase 1 single-rising dose (SRD, Part 1) plasma PK in healthy subjects; assay type: in vivo, human; conditions: for Vd/F / AUC(0-inf) / Cmax / Tmax / AUC(0-t): both sexes, human, plasma; for Tmax: po
Experimental: The study was designed to assess the safety, tolerability, PK, and PD of COMPOUND A. A total of 88 subjects were enrolled in 6 SRD and 5 SRD/MRD cohorts (n=8 per cohort). The study was composed of 2 parts.
In Part 1 of the study (SRD cohorts), a single oral tablet dose of COMPOUND A (0.3, 1, 3, 5, 9, or 18 mg) or matching placebo was administered on Day 1 followed by safety, tolerability, PK, and PD assessments. In each SRD cohort of 8 subjects (6 active: 2 placebo), sentinel dosing was used whereby 2 initial subjects (1 active: 1 placebo) were administered study drug to evaluate safety and tolerability before dosing in the remaining subjects (5 active: 1 placebo) after an interval of at least 24 hours. Dosing in the remaining 6 subjects from each cohort was staggered such that only 3 subjects were dosed in 1 day, with the last 3 subjects being dosed after an additional 24-hour interval. The data from each cohort were reviewed sequentially to ensure adequate safety and tolerability before administering the next dose level. Study drug was administered after an overnight fast of at least 10 hours. Subjects were confined in the study unit for 5 days, from Check-in on Day −1 until approximately 96 hours after dosing. Subjects in Cohorts 1 to 5 (0.3-9 mg) returned to the clinic on Days 6 and 7 and subjects in Cohort 6 (18 mg) returned on Days 6, 7 and 8 for additional PK blood sample collections. To allow for a preliminary assessment of the effect of food on the PK of COMPOUND A, subjects in SRD Cohort 3 (3 mg) returned to the clinic to receive study drug under fed conditions (standard high-fat meal, as defined by the Food and Drug Administration (“FDA”)), after the safety and tolerability of the higher dose (5 mg) under fasted conditions had been established.
For all cohorts in Parts 1 and 2, serial PK blood samples were collected pre- and post-dose on Day 1 to measure plasma concentrations of COMPOUND A and its metabolites. For all SRD/MRD cohorts in Part 2, urine samples were collected pre- and post-dose on Day 1 and post-dose on Day 18 to measure concentrations of COMPOUND A and its metabolites.
For Part 1 of the study, all 36 subjects who received COMPOUND A were included in the PK set. For Part 2 of the study, all 30 subjects who received COMPOUND A were included in the PK set.
Referring now to FIG. 2, mean plasma concentration-time profiles (linear and semilog scales) of COMPOUND A were determined following single oral administration of COMPOUND A.

[2] = Population PK modeling and simulation; set-up: species or system human
Experimental: Data processing and graphical visualization was performed using Matlab (version R2019a; The MathWorks, Inc., Natick, Massachusetts, United States).
The Stochastic Approximation of Expectation Maximization (SAEM) algorithm, a stochastic algorithm for calculating the maximum likelihood estimator, was selected as model-estimation method for its ability to accurately estimate population parameters.
Model building and selection was based on the following criteria/procedures: • Evaluation of individual and population parameter estimates and their precision (precision was quantified using the percentage of relative standard error (% RSE)); • Graphical examination of diagnostic and goodness-of-fit plots; • Analysis of correlation matrix of the estimates and condition number; • Reduction in both residual variability and inter-individual variability; and • Reduction in log likelihood (−2LL), Akaike Information Criterion (AIC) and Bayesian Information Criterion (BIC) for all nested models.
The base model was built by using these criteria to compare different structural models (e.g., one-compartment, two-compartment, three-compartment) with different absorption (e.g., zero order, first order) and elimination (e.g., linear, nonlinear) processes. Development of the base model was performed by adding inter-individual variability (IIV) on one structural parameter at a time and applying the set criteria to select the best model. IIV was generally modeled as an exponential term as follows:
A covariate model was then built to further reduce the unexplained inter-individual variability. Development of the covariate model was performed using the forward selection and backward elimination method. In the forward selection step, covariates were tested one at the time. […] In the backward elimination step, covariates were eliminated one at the time and changes in −2LL recorded.
The final model was evaluated using a visual predictive check, a simulation-based method to visually assess concordance of the model-based simulations and observed data. Bootstrap analysis was also performed to determine the precision of the parameter estimates, estimate confidence interval of identified parameters and assess the stability of the model. […]

[3] = single oral 0.3 mg, mean, N = 6
[4] = final POPPK model, inter-individual variability
[5] = final POPPK model, residual error

## CC1=CN2CCS(=O)(=O)N=C2C(c2ccc(OC3CCCCC3)cc2)=N1 [COMPOUND A, 9-[4-(Cyclohexyloxy)phenyl]-7-methyl-3,4-dihydropyrazino[2,1-c][1,2,4]thiadiazine 2,2-dioxide]
[1]; oral, range across single dose levels, read-out: mean Vz/F
  Vd/F: 95.1 to 133 L
[1]; oral, range across the 0.3 to 18 mg single dose range, read-out: mean AUC∞
  AUC(0-inf): 148 to 8880 ng·h/mL
[1]; oral, range across the 0.3 to 18 mg single dose range, read-out: mean plasma Cmax
  Cmax: 3.63 to 126 ng/mL
[1]; 0.3 mg, single oral 0.3 mg, median, N = 6, read-out: tmax
  Tmax: 1.25 h
[1]; 1 mg, single oral 1 mg, median, N = 6, read-out: tmax
  Tmax: 2.5 h
[1]; 3 mg, single oral 3 mg, median, N = 6, read-out: tmax
  Tmax: 1.75 h
[1]; 5 mg, single oral 5 mg, median, N = 6, read-out: tmax
  Tmax: 2.75 h
[1]; 9 mg, single oral 9 mg, median, N = 6, read-out: tmax
  Tmax: 5.5 h
[1]; 18 mg, range across single oral doses 0.3, 1, 3, 5, 9, 18 mg, read-out: median tmax
  Tmax: 1.25 to 5.5 h
[1]; 18 mg, single oral 18 mg, median, N = 6, read-out: tmax
  Tmax: 5.05 h
[1]; [3]
  AUC(0-t): 126 ng·h/mL
  CL/F: 2.17 L/h
  t1/2z: 33.1 h
[1]; single oral 0.3 mg, mean, N = 6, read-out: AUC∞
  AUC(0-inf): 148 ng·h/mL
[1]; single oral 0.3 mg, mean, N = 6, read-out: Cmax
  Cmax: 3.63 ng/mL
[1]; single oral 0.3 mg, mean, N = 6, read-out: Vz/F
  Vd/F: 98.8 L
[1]; single oral 1 mg, mean, N = 6
  AUC(0-t): 565 ng·h/mL
  CL/F: 1.79 L/h
  t1/2z: 41.3 h
[1]; single oral 1 mg, mean, N = 6, read-out: AUC∞
  AUC(0-inf): 642 ng·h/mL
[1]; single oral 1 mg, mean, N = 6, read-out: Cmax
  Cmax: 10.3 ng/mL
[1]; single oral 1 mg, mean, N = 6, read-out: Vz/F
  Vd/F: 95.1 L
[1]; single oral 3 mg, mean, N = 6
  AUC(0-t): 1340 ng·h/mL
  CL/F: 2.18 L/h
  t1/2z: 37.9 h
[1]; single oral 3 mg, mean, N = 6, read-out: AUC∞
  AUC(0-inf): 1460 ng·h/mL
[1]; single oral 3 mg, mean, N = 6, read-out: Cmax
  Cmax: 27.1 ng/mL
[1]; single oral 3 mg, mean, N = 6, read-out: Vz/F
  Vd/F: 114 L
[1]; single oral 5 mg, mean, N = 6
  AUC(0-t): 2320 ng·h/mL
  CL/F: 2.08 L/h
  t1/2z: 42.5 h
[1]; single oral 5 mg, mean, N = 6, read-out: AUC∞
  AUC(0-inf): 2650 ng·h/mL
[1]; single oral 5 mg, mean, N = 6, read-out: Cmax
  Cmax: 45.3 ng/mL
[1]; single oral 5 mg, mean, N = 6, read-out: Vz/F
  Vd/F: 115 L
[1]; single oral 9 mg, mean, N = 6
  AUC(0-t): 4490 ng·h/mL
  CL/F: 1.98 L/h
  t1/2z: 47.8 h
[1]; single oral 9 mg, mean, N = 6, read-out: AUC∞
  AUC(0-inf): 5380 ng·h/mL
[1]; single oral 9 mg, mean, N = 6, read-out: Cmax
  Cmax: 69.5 ng/mL
[1]; single oral 9 mg, mean, N = 6, read-out: Vz/F
  Vd/F: 120 L
[1]; single oral 18 mg, mean, N = 6
  AUC(0-t): 8080 ng·h/mL
  CL/F: 2.29 L/h
  t1/2z: 44.1 h
[1]; single oral 18 mg, mean, N = 6, read-out: AUC∞
  AUC(0-inf): 8880 ng·h/mL
[1]; single oral 18 mg, mean, N = 6, read-out: Cmax
  Cmax: 126 ng/mL
[1]; single oral 18 mg, mean, N = 6, read-out: Vz/F
  Vd/F: 133 L
[2]; bootstrap analysis
  Additive Error, median bootstrap parameter estimate: 0.34 SD
  CL/F_IIV, median bootstrap parameter estimate: 61.97 % CV
  KA IIV, median bootstrap parameter estimate: 97.18 % CV
  Proportional Error, median bootstrap parameter estimate: 37.72 % CV
  TLag IIV, median bootstrap parameter estimate: 67.78 % CV
  V/F_IIV, median bootstrap parameter estimate: 33.27 % CV
[2]; [4]
  CL/F_IIV, population parameter estimate: 62.53 % CV
  KA IIV, population parameter estimate: 98.99 % CV
  TLag IIV, population parameter estimate: 69.17 % CV
  V/F_IIV, population parameter estimate: 33.77 % CV
[2]; [5]
  Additive Error, population parameter estimate: 0.35 SD
  Proportional Error, population parameter estimate: 37.56 % CV
